Legend:
[1] = system: OVCAR8; test: drug sensitivity score (DSS2) on cancer cell count; higher = more sensitive; extreme values may be limits of the assay; conditions: 72 h
How it was run: (§1)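 Cancer cell counts came from 10× images (4 fields) of fixed cells immunostained for CK8/18 with Hoechst. The ovarian cancer cells had been grown alone or in 1:1 direct co-culture with lung or skin fibroblasts on 384-well plates pre-spotted acoustically with 528 approved and investigational compounds at 5 concentrations, then treated for 72 h. Breeze was used to derive a drug sensitivity score from logistic fits of the data.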

[2] = system: KURAMOCHI; test: as above; conditions: 72 h
How it was run: as §1

[3] = co-cultured fibroblast: BJHTERT
[4] = co-cultured fibroblast: none (monoculture)

CNC(=O)c1ccc(N2C(=S)N(c3cnc(C#N)c(C(F)(F)F)c3)C(=O)C23CCC3)cc1F [Apalutamide]
drug sensitivity score [1, 3]: 0 DSS | drug sensitivity score ([1]; co-cultured fibroblast: WI38): 0 DSS | drug sensitivity score [1, 4]: 0 DSS | drug sensitivity score [2, 3]: 0 DSS | drug sensitivity score ([2]; co-cultured fibroblast: WI38): 0 DSS | drug sensitivity score [2, 4]: 0 DSS

N#CC1(c2ccc(NC(=O)c3cccnc3NCc3ccncc3)cc2)CCCC1 [Apatinib]
drug sensitivity score [1, 3]: 0 DSS | drug sensitivity score ([1]; co-cultured fibroblast: WI38): 4.9 DSS | drug sensitivity score [1, 4]: 2.2 DSS | drug sensitivity score [2, 3]: 0 DSS | drug sensitivity score ([2]; co-cultured fibroblast: WI38): 0 DSS | drug sensitivity score [2, 4]: 0 DSS

O=C(Nc1ccc(OC(F)(F)Cl)cc1)c1cnc(N2CC[C@@H](O)C2)c(-c2cc[nH]n2)c1 [Asciminib]
drug sensitivity score [1, 3]: 0 DSS | drug sensitivity score ([1]; co-cultured fibroblast: WI38): 10.5 DSS | drug sensitivity score [1, 4]: 0 DSS | drug sensitivity score [2, 3]: 0 DSS | drug sensitivity score ([2]; co-cultured fibroblast: WI38): 0 DSS | drug sensitivity score [2, 4]: 0 DSS

CC(C)c1c(C(=O)Nc2ccccc2)c(-c2ccccc2)c(-c2ccc(F)cc2)n1CC[C@@H](O)C[C@@H](O)CC(=O)O [Atorvastatin]
drug sensitivity score [1, 3]: 4 DSS | drug sensitivity score ([1]; co-cultured fibroblast: WI38): 11.7 DSS | drug sensitivity score [1, 4]: 6 DSS | drug sensitivity score [2, 3]: 3.1 DSS | drug sensitivity score ([2]; co-cultured fibroblast: WI38): 2.1 DSS | drug sensitivity score [2, 4]: 1.9 DSS

CC(=O)OC[C@H]1O[C@@H]([S-])[C@H](OC(C)=O)[C@@H](OC(C)=O)[C@@H]1OC(C)=O.CCP(CC)CC.[Au+] [Auranofin]
drug sensitivity score [1, 3]: 12.1 DSS | drug sensitivity score ([1]; co-cultured fibroblast: WI38): 8.8 DSS | drug sensitivity score [1, 4]: 7.3 DSS | drug sensitivity score [2, 3]: 9.3 DSS | drug sensitivity score ([2]; co-cultured fibroblast: WI38): 7 DSS | drug sensitivity score [2, 4]: 8.1 DSS

CNC(=O)c1ccccc1Sc1ccc2c(/C=C/c3ccccn3)n[nH]c2c1 [Axitinib]
drug sensitivity score [1, 3]: 7.4 DSS | drug sensitivity score ([1]; co-cultured fibroblast: WI38): 5.6 DSS | drug sensitivity score [1, 4]: 6.7 DSS | drug sensitivity score [2, 3]: 8.7 DSS | drug sensitivity score ([2]; co-cultured fibroblast: WI38): 8.4 DSS | drug sensitivity score [2, 4]: 7 DSS

Nc1ncn([C@@H]2O[C@H](CO)[C@@H](O)[C@H]2O)c(=O)n1 [Azacitidine]
drug sensitivity score [1, 3]: 3.9 DSS | drug sensitivity score ([1]; co-cultured fibroblast: WI38): 1.5 DSS | drug sensitivity score [1, 4]: 8.9 DSS | drug sensitivity score [2, 3]: 2.8 DSS | drug sensitivity score ([2]; co-cultured fibroblast: WI38): 2.6 DSS | drug sensitivity score [2, 4]: 9.3 DSS

Cc1cc(-c2nc(-c3ccc(OC(F)(F)F)cc3)no2)nn1Cc1ccnc(N2CCN(C3CC3)CC2)c1 [BAY 87-2243]
drug sensitivity score [1, 3]: 31.1 DSS | drug sensitivity score ([1]; co-cultured fibroblast: WI38): 0 DSS | drug sensitivity score [1, 4]: 4.8 DSS | drug sensitivity score [2, 3]: 7.6 DSS | drug sensitivity score ([2]; co-cultured fibroblast: WI38): 0 DSS | drug sensitivity score [2, 4]: 4.3 DSS

O=C1CCc2c(Oc3ccc4c(c3)[C@@H]3[C@H](O4)[C@H]3c3nc4cc(C(F)(F)F)ccc4[nH]3)ccnc2N1 [BGB-283]
drug sensitivity score [1, 3]: 3.7 DSS | drug sensitivity score ([1]; co-cultured fibroblast: WI38): 13.4 DSS | drug sensitivity score [1, 4]: 5.2 DSS | drug sensitivity score [2, 3]: 6.9 DSS | drug sensitivity score ([2]; co-cultured fibroblast: WI38): 5.3 DSS | drug sensitivity score [2, 4]: 4.7 DSS

CC[C@@H]1C(=O)N(C)c2cnc(Nc3ccc(C(=O)NC4CCN(C)CC4)cc3OC)nc2N1C1CCCC1 [BI 2536]
drug sensitivity score [1, 3]: 29.5 DSS | drug sensitivity score ([1]; co-cultured fibroblast: WI38): 25.6 DSS | drug sensitivity score [1, 4]: 29.1 DSS | drug sensitivity score [2, 3]: 21.7 DSS | drug sensitivity score ([2]; co-cultured fibroblast: WI38): 25.7 DSS | drug sensitivity score [2, 4]: 21.1 DSS

COc1c(C)cnc(Cn2cnc3c(Cl)nc(N)nc32)c1C [BIIB021]
drug sensitivity score [1, 3]: 21.5 DSS | drug sensitivity score ([1]; co-cultured fibroblast: WI38): 21.8 DSS | drug sensitivity score [1, 4]: 24 DSS | drug sensitivity score [2, 3]: 13.6 DSS | drug sensitivity score ([2]; co-cultured fibroblast: WI38): 21.1 DSS | drug sensitivity score [2, 4]: 15.6 DSS

CC1(C)C(C(=O)Nc2ccc(S(=O)(=O)c3ccc(NC(=O)C4C(C)(C)C4(C)C)cc3)cc2)C1(C)C [BRD7116]
drug sensitivity score [1, 3]: 0 DSS | drug sensitivity score ([1]; co-cultured fibroblast: WI38): 0 DSS | drug sensitivity score [1, 4]: 0 DSS | drug sensitivity score [2, 3]: 0.5 DSS | drug sensitivity score ([2]; co-cultured fibroblast: WI38): 1.9 DSS | drug sensitivity score [2, 4]: 0 DSS

O=C(Nc1cccc(Nc2ncc(Br)c(NCCc3cnc[nH]3)n2)c1)N1CCCC1 [BX-912]
drug sensitivity score [1, 3]: 9.1 DSS | drug sensitivity score ([1]; co-cultured fibroblast: WI38): 7.8 DSS | drug sensitivity score [1, 4]: 7.3 DSS | drug sensitivity score [2, 3]: 10.4 DSS | drug sensitivity score ([2]; co-cultured fibroblast: WI38): 9.6 DSS | drug sensitivity score [2, 4]: 8.7 DSS

Cc1ccc(NC(=O)c2ccc(CN3CC[C@H](N(C)C)C3)c(C(F)(F)F)c2)cc1Nc1nccc(-c2cncnc2)n1 [Bafetinib]
drug sensitivity score [1, 3]: 0 DSS | drug sensitivity score ([1]; co-cultured fibroblast: WI38): 0 DSS | drug sensitivity score [1, 4]: 0 DSS | drug sensitivity score [2, 3]: 0.1 DSS | drug sensitivity score ([2]; co-cultured fibroblast: WI38): 0 DSS | drug sensitivity score [2, 4]: 0 DSS

CCS(=O)(=O)N1CC(CC#N)(n2cc(-c3ncnc4[nH]ccc34)cn2)C1 [Baricitinib]
drug sensitivity score [1, 3]: 0 DSS | drug sensitivity score ([1]; co-cultured fibroblast: WI38): 1.1 DSS | drug sensitivity score [1, 4]: 0 DSS | drug sensitivity score [2, 3]: 0 DSS | drug sensitivity score ([2]; co-cultured fibroblast: WI38): 0 DSS | drug sensitivity score [2, 4]: 0 DSS

O=C(/C=C/c1cccc(S(=O)(=O)Nc2ccccc2)c1)NO [Belinostat]
drug sensitivity score [1, 3]: 17.7 DSS | drug sensitivity score ([1]; co-cultured fibroblast: WI38): 18.2 DSS | drug sensitivity score [1, 4]: 22.5 DSS | drug sensitivity score [2, 3]: 15.1 DSS | drug sensitivity score ([2]; co-cultured fibroblast: WI38): 18.6 DSS | drug sensitivity score [2, 4]: 27.5 DSS

N#CC(c1ccnc(OCc2ccc(CN3CCOCC3)cc2)n1)c1nc2ccccc2s1 (stereo not drawn) [Bentamapimod]
drug sensitivity score [1, 3]: 0 DSS | drug sensitivity score ([1]; co-cultured fibroblast: WI38): 0 DSS | drug sensitivity score [1, 4]: 1.4 DSS | drug sensitivity score [2, 3]: 2.5 DSS | drug sensitivity score ([2]; co-cultured fibroblast: WI38): 2.3 DSS | drug sensitivity score [2, 4]: 0.2 DSS

C=C(c1ccc(C(=O)O)cc1)c1cc2c(cc1C)C(C)(C)CCC2(C)C [Bexarotene]
drug sensitivity score [1, 3]: 0 DSS | drug sensitivity score ([1]; co-cultured fibroblast: WI38): 0 DSS | drug sensitivity score [1, 4]: 0 DSS | drug sensitivity score [2, 3]: 0.4 DSS | drug sensitivity score ([2]; co-cultured fibroblast: WI38): 0 DSS | drug sensitivity score [2, 4]: 15.5 DSS

From the supplement of paper PMC12420376
